# Experimental data taken from US8247211B2, “Glycopeptide antibiotics” (American Cyanamid Company, priority 2001, dated 2012).
# Tests used:
# Experiment in all cases: In vitro antibacterial evaluation: minimum inhibitory concentration (MIC), broth dilution method
# Type in all cases: cell-based
# Enterococcus sp. = test system: Enterococcus sp.
# Summary of the method: (§1)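 MIC by broth dilution in Mueller-Hinton II medium following NCCLS M7-A2. Inoculum was 5×10^5 CFU/mL and antibiotic was tested over 64-0.06 μg/mL. Gram-positive panel included clinical isolates resistant to methicillin, penicillin and/or vancomycin.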
# Escherichia coli = test system: Escherichia coli
# Summary of the method: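 First, organisms are seeded at 5×10^5 CFU/mL into Muller-Hinton II […]. Next, antibiotic is applied across 64-0.06 μg/mL by broth dilution (NCCLS M7-A2). Finally, the lowest inhibitory concentration is recorded as MIC.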
# Staphylococcus sp. = test system: Staphylococcus sp.
# Summary of the method: as §1
# Streptococcus sp. = test system: Streptococcus sp.
# Summary of the method: as §1
# [1] = broth dilution, inoculum 5×10^5 CFU/mL, 18 hours at 35° C.
# [2] = broth dilution, 5×10^5 CFU/mL, 18 hours at 35° C.
structure (smiles),measurement,setting,value
"CC(C1CCCCC1)C1NC(=O)CNC(=O)C(CO)NC(=O)C(C(O)C2CNC(=N)N2C2OC(CO)C(O)C(O)C2O)NC(=O)C(C(O)C2CNC(=N)N2)NC(=O)C(Cc2ccc(OC3OC(CO)C(OC4OC5COC(c6ccccc6)OC5C(O)C4O)C(O)C3O)cc2)NC1=O (centres unmarked) [Example 201, Cyclo[3-cyclohexyl-2-aminobutanoyl-O-[4-O-[4,6-O-benzylidenehexonyranosyl]hexopyranosyl]tyrosyl-3-(2-iminoimidazolidin-4-yl)seryl-3-(3-hexopyranosyl-2-iminoimidazolidin-4-yl)serylserylglycyl]]",MIC Enterococcus avium (GC 4558),"Enterococcus sp.; Enterococcus avium (GC 4558), 18 hours at 35° C.",1 µg/mL
same,MIC Enterococcus faecalis (ATCC 29212),"Enterococcus sp.; Enterococcus faecalis (ATCC 29212), 18 hours at 35° C.",1 µg/mL
same,MIC Enterococcus faecalis (GC 2242),"Enterococcus sp.; Enterococcus faecalis (GC 2242), 18 hours at 35° C.",1 µg/mL
same,MIC Enterococcus faecalis (GC 2691),"Enterococcus sp.; Enterococcus faecalis (GC 2691), 18 hours at 35° C.",1 µg/mL
same,MIC Enterococcus faecalis (GC 3059),"Enterococcus sp.; Enterococcus faecalis (GC 3059), 18 hours at 35° C.",1 µg/mL
same,MIC Enterococcus faecalis (GC 4552),"Enterococcus sp.; Enterococcus faecalis (GC 4552), 18 hours at 35° C.",1 µg/mL
same,MIC Enterococcus faecalis (GC 4553),"Enterococcus sp.; Enterococcus faecalis (GC 4553), 18 hours at 35° C.",1 µg/mL
same,MIC Enterococcus faecalis (GC 4554),"Enterococcus sp.; Enterococcus faecalis (GC 4554), 18 hours at 35° C.",1 µg/mL
same,MIC Enterococcus faecalis (GC 6189),"Enterococcus sp.; Enterococcus faecalis (GC 6189), 18 hours at 35° C.",1 µg/mL
same,MIC Enterococcus faecium (GC 2243),"Enterococcus sp.; Enterococcus faecium (GC 2243), 18 hours at 35° C.",1 µg/mL
same,MIC Enterococcus faecium (GC 4556),"Enterococcus sp.; Enterococcus faecium (GC 4556), 18 hours at 35° C.",1 µg/mL
same,MIC Enterococcus faecium (GC 4557),"Enterococcus sp.; Enterococcus faecium (GC 4557), 18 hours at 35° C.",0.5 µg/mL
same,MIC Enterococcus avium (GC 4558),Enterococcus sp.; [1],1 µg/mL
same,MIC Enterococcus faecalis (ATCC 29212),Enterococcus sp.; [1],1 µg/mL
same,MIC Enterococcus faecalis (GC 2242),Enterococcus sp.; [1],1 µg/mL
same,MIC Enterococcus faecalis (GC 2691),Enterococcus sp.; [1],1 µg/mL
same,MIC Enterococcus faecalis (GC 3059),Enterococcus sp.; [1],1 µg/mL
same,MIC Enterococcus faecalis (GC 4552),Enterococcus sp.; [1],1 µg/mL
same,MIC Enterococcus faecalis (GC 4553),Enterococcus sp.; [1],1 µg/mL
same,MIC Enterococcus faecalis (GC 4554),Enterococcus sp.; [1],1 µg/mL
same,MIC Enterococcus faecalis (GC 6189),Enterococcus sp.; [1],1 µg/mL
same,MIC Enterococcus faecium (GC 2243),Enterococcus sp.; [1],1 µg/mL
same,MIC Enterococcus faecium (GC 4556),Enterococcus sp.; [1],1 µg/mL
same,MIC Enterococcus faecium (GC 4557),Enterococcus sp.; [1],0.5 µg/mL
same,MIC Escherichia coli (ATCC 25922),"Escherichia coli; Escherichia coli (ATCC 25922), 18 hours at 35° C.",16 µg/mL
same,MIC Escherichia coli (GC 4559),"Escherichia coli; Escherichia coli (GC 4559), 18 hours at 35° C.",16 µg/mL
same,MIC Escherichia coli (GC 4560),"Escherichia coli; Escherichia coli (GC 4560), 18 hours at 35° C.",0.25 µg/mL
same,MIC Staphylococcus aureus (ATCC 29213),Staphylococcus sp.; strain ATCC 29213,0.25 µg/mL
same,MIC Staphylococcus aureus (GC 1131),Staphylococcus sp.; strain GC 1131,0.25 µg/mL
same,MIC Staphylococcus aureus (GC 3051),Staphylococcus sp.; strain GC 3051,0.5 µg/mL
same,MIC Staphylococcus aureus (GC 3053),Staphylococcus sp.; strain GC 3053,0.5 µg/mL
same,MIC Staphylococcus aureus (GC 4541),Staphylococcus sp.; strain GC 4541,0.5 µg/mL
same,MIC Staphylococcus aureus (GC 4542),Staphylococcus sp.; strain GC 4542,0.25 µg/mL
same,MIC Staphylococcus aureus-SMITH (GC 4543),Staphylococcus sp.; strain GC 4543,0.5 µg/mL
same,MIC Staphylococcus aureus (GC 4544),Staphylococcus sp.; strain GC 4544,0.25 µg/mL
same,MIC Staphylococcus aureus (GC 4545),Staphylococcus sp.; strain GC 4545,0.25 µg/mL
same,MIC Staphylococcus haemolyticus (GC 4546),Staphylococcus sp.; strain GC 4546,0.25 µg/mL
same,MIC Coagulase Negative Staphylococcus (GC 4547),Staphylococcus sp.; strain GC 4547,0.25 µg/mL
same,MIC Coagulase Negative Staphylococcus (GC 4548),Staphylococcus sp.; strain GC 4548,0.25 µg/mL
same,MIC Coagulase Negative Staphylococcus (GC 4549),Staphylococcus sp.; strain GC 4549,0.25 µg/mL
same,MIC Coagulase Negative Staphylococcus (GC 4551),Staphylococcus sp.; strain GC 4551,0.25 µg/mL
same,MIC Streptococcus agalactiae (GC 4564),"Streptococcus sp.; Streptococcus agalactiae (GC 4564), 18 hours at 35° C.",<0.12 µg/mL
same,MIC Streptococcus pneumoniae (ATCC 6301),"Streptococcus sp.; Streptococcus pneumoniae (ATCC 6301), 18 hours at 35° C.",<0.12 µg/mL
same,MIC Streptococcus pneumoniae (GC 1894),"Streptococcus sp.; Streptococcus pneumoniae (GC 1894), 18 hours at 35° C.",<0.12 µg/mL
same,MIC Streptococcus pneumoniae (GC 4565),"Streptococcus sp.; Streptococcus pneumoniae (GC 4565), 18 hours at 35° C.",<0.12 µg/mL
same,MIC Streptococcus pyogenes (GC 4563),"Streptococcus sp.; Streptococcus pyogenes (GC 4563), 18 hours at 35° C.",<0.12 µg/mL
same,MIC Streptococcus agalactiae (GC 4564),Streptococcus sp.; [1],<0.12 µg/mL
same,MIC Streptococcus pneumoniae (ATCC 6301),Streptococcus sp.; [1],<0.12 µg/mL
same,MIC Streptococcus pneumoniae (GC 1894),Streptococcus sp.; [1],<0.12 µg/mL
same,MIC Streptococcus pneumoniae (GC 4565),Streptococcus sp.; [1],<0.12 µg/mL
same,MIC Streptococcus pyogenes (GC 4563),Streptococcus sp.; [1],<0.12 µg/mL
"COc1cccc(C2OC3C(OC4C(CO)OC(Oc5ccc(CC6NC(=O)C(C(C)c7ccccc7)NC(=O)CNC(=O)C(CO)NC(=O)C(C(O)C7CNC(=N)N7C7OC(CO)C(O)C(O)C7O)NC(=O)C(C(O)C7CNC(=N)N7)NC6=O)cc5)C(O)C4O)OC(CO)C(O)C3O2)c1 (single isomer, unassigned) [Example 137a, Cyclo[glycyl-β-methylphenylalanyl-O-[4-O-[2,3-O-(3-methoxybenzylidene)hexopyranosyl]-hexopyranosyl]tyrosyl-3-(2-iminoimidazolidin-4-yl)seryl-3-(3-hexopyranosyl-2-iminoimidazolidin-4-yl)serylseryl]]",MIC Enterococcus faecalis (ATCC 29212),Enterococcus sp.; strain ATCC 29212,>64 µg/mL
same,MIC Enterococcus faecalis (GC 2242),Enterococcus sp.; strain GC 2242,>64 µg/mL
same,MIC Enterococcus faecium (GC 2243),Enterococcus sp.; strain GC 2243,>64 µg/mL
same,MIC Enterococcus faecalis (GC 2691),Enterococcus sp.; strain GC 2691,>64 µg/mL
same,MIC Enterococcus faecalis (GC 3059),Enterococcus sp.; strain GC 3059,>64 µg/mL
same,MIC Enterococcus faecalis (GC 4552),Enterococcus sp.; strain GC 4552,>64 µg/mL
same,MIC Enterococcus faecalis (GC 4553),Enterococcus sp.; strain GC 4553,>64 µg/mL
same,MIC Enterococcus faecalis (GC 4554),Enterococcus sp.; strain GC 4554,>64 µg/mL
same,MIC Enterococcus faecium (GC 4556),Enterococcus sp.; strain GC 4556,>64 µg/mL
same,MIC Enterococcus faecium (GC 4557),Enterococcus sp.; strain GC 4557,16 µg/mL
same,MIC Enterococcus avium (GC 4558),Enterococcus sp.; strain GC 4558,64 µg/mL
same,MIC Enterococcus faecalis (GC 6189),Enterococcus sp.; strain GC 6189,>64 µg/mL
same,MIC Escherichia coli (ATCC 25922),Escherichia coli; strain ATCC 25922,>64 µg/mL
same,MIC Escherichia coli (GC 4559),Escherichia coli; strain GC 4559,>64 µg/mL
same,MIC Escherichi coli (GC 4560),Escherichia coli; strain GC 4560,8 µg/mL
same,MIC Coagulase Negative Staphylococcus (GC 4547),Staphylococcus sp.; [2],16 µg/mL
same,MIC Coagulase Negative Staphylococcus (GC 4548),Staphylococcus sp.; [2],8 µg/mL
same,MIC Coagulase Negative Staphylococcus (GC 4549),Staphylococcus sp.; [2],8 µg/mL
same,MIC Coagulase Negative Staphylococcus (GC 4551),Staphylococcus sp.; [2],16 µg/mL
same,MIC Coagulase Negative Staphylococcus (GC 6257),Staphylococcus sp.; [2],8 µg/mL
same,MIC Staphylococcus aureus (ATCC 29213),Staphylococcus sp.; [2],32 µg/mL
same,MIC Staphylococcus aureus (GC 1131),Staphylococcus sp.; [2],32 µg/mL
same,MIC Staphylococcus aureus (GC 3051),Staphylococcus sp.; [2],32 µg/mL
same,MIC Staphylococcus aureus (GC 3053),Staphylococcus sp.; [2],32 µg/mL
same,MIC Staphylococcus aureus (GC 4541),Staphylococcus sp.; [2],16 µg/mL
same,MIC Staphylococcus aureus (GC 4542),Staphylococcus sp.; [2],32 µg/mL
same,MIC Staphylococcus aureus (GC 4544),Staphylococcus sp.; [2],32 µg/mL
same,MIC Staphylococcus aureus (GC 4545),Staphylococcus sp.; [2],32 µg/mL
same,MIC Staphylococcus aureus-SMITH (GC 4543),Staphylococcus sp.; [2],16 µg/mL
same,MIC Staphylococcus haemolyticus (GC 4546),Staphylococcus sp.; [2],16 µg/mL
same,MIC Staphylococcus aureus (ATCC 29213),"Staphylococcus sp.; strain ATCC 29213, broth dilution, 18 hours at 35° C.",32 µg/mL
same,MIC Staphylococcus aureus (GC 1131),"Staphylococcus sp.; strain GC 1131, broth dilution, 18 hours at 35° C.",32 µg/mL
same,MIC Staphylococcus aureus (GC 3051),"Staphylococcus sp.; strain GC 3051, broth dilution, 18 hours at 35° C.",32 µg/mL
same,MIC Staphylococcus aureus (GC 3053),"Staphylococcus sp.; strain GC 3053, broth dilution, 18 hours at 35° C.",32 µg/mL
same,MIC Staphylococcus aureus (GC 4541),"Staphylococcus sp.; strain GC 4541, broth dilution, 18 hours at 35° C.",16 µg/mL
same,MIC Staphylococcus aureus (GC 4542),"Staphylococcus sp.; strain GC 4542, broth dilution, 18 hours at 35° C.",32 µg/mL
same,MIC Staphylococcus aureus-SMITH (GC 4543),"Staphylococcus sp.; strain GC 4543, broth dilution, 18 hours at 35° C.",16 µg/mL
same,MIC Staphylococcus aureus (GC 4544),"Staphylococcus sp.; strain GC 4544, broth dilution, 18 hours at 35° C.",32 µg/mL
same,MIC Staphylococcus aureus (GC 4545),"Staphylococcus sp.; strain GC 4545, broth dilution, 18 hours at 35° C.",32 µg/mL
same,MIC Staphylococcus haemolyticus (GC 4546),"Staphylococcus sp.; strain GC 4546, broth dilution, 18 hours at 35° C.",16 µg/mL
same,MIC Coagulase Negative Staphylococcus (GC 4547),"Staphylococcus sp.; strain GC 4547, broth dilution, 18 hours at 35° C.",16 µg/mL
same,MIC Coagulase Negative Staphylococcus (GC 4548),"Staphylococcus sp.; strain GC 4548, broth dilution, 18 hours at 35° C.",8 µg/mL
same,MIC Coagulase Negative Staphylococcus (GC 4549),"Staphylococcus sp.; strain GC 4549, broth dilution, 18 hours at 35° C.",8 µg/mL
same,MIC Coagulase Negative Staphylococcus (GC 4551),"Staphylococcus sp.; strain GC 4551, broth dilution, 18 hours at 35° C.",16 µg/mL
same,MIC Coagulase Negative Staphylococcus (GC 6257),"Staphylococcus sp.; strain GC 6257, broth dilution, 18 hours at 35° C.",8 µg/mL
same,MIC Streptococcus pneumoniae (ATCC 6301),Streptococcus sp.; strain ATCC 6301,8 µg/mL
same,MIC Streptococcus pneumoniae (GC 1894),Streptococcus sp.; strain GC 1894,4 µg/mL
same,MIC Streptococcus pyogenes (GC 4563),Streptococcus sp.; strain GC 4563,16 µg/mL
same,MIC Streptococcus agalactiae (GC 4564),Streptococcus sp.; strain GC 4564,16 µg/mL
same,MIC Streptococcus pneumoniae (GC 4565),Streptococcus sp.; strain GC 4565,16 µg/mL
